Read-outs that look alike come from different tables or passages of the source.
Assays:
[1] = biological target: T1, human CB2 receptor (hCB2) (Homo sapiens, UniProt P34972); assay: cAMP assay (LANCE TR-FRET) in CHO-K1 cells stably expressing hCB2; format: cell-based
T1 construct: host or cells: CHO-K1
Procedure: (§1) The ability of compounds to act as agonists or inverse agonists at human CB2 and CB1 receptors (hCB2, hCB1, respectively) and at the rat CB2 receptor (rCB2) was determined by measuring changes in intracellular cAMP levels. Chinese Hamster Ovary (CHO-K1) cell lines stably expressing hCB2 (Genebank: X74328) or hCB1 (Genebank: X54937) were purchased from Euroscreen (Gosselies, Belgium). The rat CB2 receptor was expressed from genomic DNA (provided by M. Abood, California Pacific Medical Center) in CHO-K1 cells from expression plasmid vector, pcDNA3.1.
(§2) Receptor mediated responses were determined by measuring changes in intracellular cAMP using LANCE cAMP detection kit (cat #AD0264, Perkin Elmer, Wellesley, Mass.) based on time-resolved fluorescence resonance energy transfer (TR-FRET).
(§3) On the day of the experiment, cells were spun at low speed for 5 min at room temperature. […] Cell clumps were removed by filtering through cell strainer 40 μm (BD Falcon, Discovery Labware, Bedford, Mass.) and diluted to 2×10^5 cells/mL. Antibody supplied with the LANCE cAMP immunoassay kit was then added according to the manufacturer's instructions. An aliquot of cells was taken for un-induced controls. […] Cells were then incubated for 30 min at room temperature prior to adding to Proxiplates containing test compounds (final DMSO concentration was less than 0.5%) with a Multidrop bulk dispenser, followed by a sixty minute incubation at room temperature. The response was stopped by addition of the detection mix supplied with the LANCE kit. The reagents were allowed to equilibrate for three hours prior to reading on an Envision multi-mode detector (Perkin-Elmer). TR-FRET was measured using a 330-380 nm excitation filter, a 665 nm emission filter, dichroic mirror 380 nm and Z=1 mm. Cyclic AMP concentrations in each well were back-calculated from a cAMP standard curve run concurrently during each assay. Each plate contained 16 wells of forskolin stimulated cells and 16 wells of forskolin plus CP55,940-treated cells. […] Concentrations of cAMP were expressed as a percent of the difference of these two groups of wells.

rat CB2 receptor (rCB2) = biological target: T2, rat CB2 receptor (rCB2) (Rattus norvegicus, UniProt Q9QZN9); assay: cAMP assay (LANCE TR-FRET) in CHO-K1 cells expressing rat CB2; format: cell-based
T2 construct: expressed in transfected cells; host or cells: CHO-K1 (plasmid pcDNA3.1)
T2 sequence (Q9QZN9 1-360): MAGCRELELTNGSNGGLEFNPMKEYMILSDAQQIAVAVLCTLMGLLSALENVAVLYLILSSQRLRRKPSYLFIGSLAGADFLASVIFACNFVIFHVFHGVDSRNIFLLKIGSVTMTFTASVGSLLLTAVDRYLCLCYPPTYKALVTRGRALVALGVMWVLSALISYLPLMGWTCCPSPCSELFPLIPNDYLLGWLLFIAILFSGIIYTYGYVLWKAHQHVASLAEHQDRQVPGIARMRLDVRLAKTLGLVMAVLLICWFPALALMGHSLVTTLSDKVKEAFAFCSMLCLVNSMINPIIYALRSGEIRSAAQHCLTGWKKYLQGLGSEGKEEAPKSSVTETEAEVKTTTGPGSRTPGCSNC
Procedure: as §1, §2, §3

[2] = biological target: human CB1 receptor (hCB1) (Homo sapiens, UniProt P21554); assay: cAMP assay (LANCE TR-FRET) in CHO-K1 cells stably expressing hCB1; format: cell-based
Procedure: as §1, §2, §3

[3] = tested on: CFA-induced thermal hyperalgesia; assay: CFA model of acute inflammation: thermal hyperalgesia (paw withdrawal latency); format: in vivo, Male Sprague-Dawley rats; conditions: for Attenuation (sec.) of CFA-induced thermal hyperalgesia (mean PWL ± SEM): p.o., vehicle 4.3 ± 0.2, naive 10.3 ± 0.3
Procedure: The anti-hyperalgesic effects of test compounds in the Complete Freund's Adjuvant (CFA) model of inflammatory pain were examined as described below. Male Sprague-Dawley rats (Hsd:Sprague-Dawley®™SD®™, Harlan, Indianapolis, Ind.) weighing about 200 grams, were housed three per cage. Test compound and ibuprofen (Sigma, cat 11892) were each prepared in a mixture of 1:1:18 ethanol:cremophor EL:water. Groups of six animals were subjected to local inflammation induced by 0.1 mL CFA (Sigma-Aldrich, cat F5881, Mycobacterium tuberculosis 1 mg/ml) injected subcutaneously into the plantar surface of the left paw.
Assessment of thermal hyperalgesia: Paw withdrawal latencies (PWLs) in response to a noxious thermal stimulus (Model #37370, Ugo Basile, Cat #55370) were obtained before and 24 hours after intraplantar administration of CFA. Rats were placed in plexi-glass chambers (10×21×14 cm) on top of a glass platform (un-heated) and allowed to acclimate for approximately 15 min before testing. Each rat received 3 trials separated by approx. 3 min each and these scores were averaged to provide the final PWL. The mean and standard error of the mean (SEM) were determined for the injured paw in each treatment group. Significant reductions in PWLs (i.e., increased sensitivity to a noxious stimulus) were interpreted as the presence of thermal hyperalgesia. To avoid tissue damage, a cut-off latency of 20 seconds was employed. These behavioral assessments were carried-out under blinded conditions (i.e., compound preparation and animal dosing was performed by someone other than the person carrying out the behavioral assessments). Ibuprofen (100 mg/kg, p.o.) was used as the positive control. The mean and SEM were determined for the injured and normal paws for each treatment group. CFA produces a significant increase in sensitivity to noxious thermal stimuli as PWLs decreased from a pre-CFA baseline of 10.3±0.3 sec to a value of 4.3±0.2 sec (p≦0.05, paired t-test). […] Compound 1-10 at a dose of 3 mg/kg produced a significant increase in PWLs (p<0.01, Bonferroni post-test) that persisted for at least 4 hours post-dosing.

[4] = tested on: acetic acid-induced writhing; assay: Inhibition of acetic acid-induced writhing in mice; format: in vivo, Male ICR mice; conditions: dose of 10 mg/kg, subcutaneous, 30 min before acetic acid; writhes over 15 min
Excerpt: 12: 525-562; Ramabadran and Bansinath (1986) Pharm. Res. 3: 263-270]. Intraperitoneal administration of dilute acetic acid solution causes a writhing behavior in mice. A writhe is defined as a contraction of the abdominal muscles accompanied by an extension of the forelimbs and elongation of the body. The number of writhes observed in the presence and absence of test compounds is counted to determine the analgesic activity of the compounds.
Male ICR mice, 20-40 grams in weight, were weighed and placed in individual observation chambers (usually a 4000 ml beaker) with a fine layer of rodent bedding at the bottom. To determine the activity and potency of test compounds, different doses of the compound solution or vehicle were injected subcutaneously in the back of the neck 30 minutes prior to administration of acetic acid solution. After administration of the compound or vehicle control, mice were returned to their individual observation chambers awaiting the intraperitoneal administration of acetic acid solution. Thirty minutes later, 10 ml/kg of a 0.6% (v/v) acetic acid solution was then injected into the right lower quadrant of the abdomen. Immediately after the injection, the mouse was returned to its observation chamber and the recording of the number of writhes is begun immediately. The number of writhes was counted over a 15-min period starting from the time of acetic acid injection. Raw data were analyzed using a one-way ANOVA followed by Dunnett's post-tests.
For dose-response analysis, raw data were converted to % maximum possible effect (% MPE) using the formula: % MPE=((Wc−Wv)/(0−Wv))×100, where Wc is the number of writhes in compound-treated mice and Wv is the mean number of writhes in vehicle-treated mice. The dose which elicited 50% attenuation of hypersensitivity (ED50) was determined using linear regression analysis. (Tallarida & Murray, 1987).

human CB1 receptor (hCB1), sequence (P21554 whole entry): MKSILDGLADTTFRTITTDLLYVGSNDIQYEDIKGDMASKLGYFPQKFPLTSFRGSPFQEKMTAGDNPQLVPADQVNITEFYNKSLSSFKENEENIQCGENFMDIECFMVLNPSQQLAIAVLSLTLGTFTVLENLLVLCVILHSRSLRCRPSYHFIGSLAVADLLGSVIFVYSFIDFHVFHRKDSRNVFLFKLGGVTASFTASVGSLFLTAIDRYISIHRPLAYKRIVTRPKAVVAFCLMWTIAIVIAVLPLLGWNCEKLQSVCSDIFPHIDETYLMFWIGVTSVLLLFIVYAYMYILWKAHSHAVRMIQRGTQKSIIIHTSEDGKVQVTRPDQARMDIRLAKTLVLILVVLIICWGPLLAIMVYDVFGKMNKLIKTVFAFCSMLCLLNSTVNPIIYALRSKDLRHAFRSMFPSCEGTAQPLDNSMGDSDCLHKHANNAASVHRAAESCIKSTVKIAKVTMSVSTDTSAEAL
T1 sequence (P34972 whole entry): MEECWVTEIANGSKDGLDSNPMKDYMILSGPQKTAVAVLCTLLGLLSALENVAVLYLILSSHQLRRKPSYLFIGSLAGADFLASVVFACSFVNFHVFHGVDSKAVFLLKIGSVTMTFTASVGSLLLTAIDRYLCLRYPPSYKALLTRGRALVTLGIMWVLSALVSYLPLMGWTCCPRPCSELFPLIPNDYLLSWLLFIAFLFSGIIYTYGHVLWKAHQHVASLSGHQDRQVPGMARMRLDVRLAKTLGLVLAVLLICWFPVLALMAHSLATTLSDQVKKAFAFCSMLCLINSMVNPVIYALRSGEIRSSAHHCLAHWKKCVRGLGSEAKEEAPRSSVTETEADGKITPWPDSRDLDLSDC

For `CNC(=O)[C@@H](NC(=O)c1nc(-c2ccccc2)n2c1CCN(C)CC2)C(C)(C)C` [Compound 3-9, (S)-N-(3,3-dimcthyl-1-(methylamino)-1-oxobutan-2-yl)-7-methyl-3-phenyl-6,7,8,9-tetrahydro-5H-imidazo[1,5-d][1,4]diazepine-1-carboxamide], the EC50 [1] was > 10000 nM, the EC50 (rat CB2 receptor (rCB2)) was > 10000 nM and the EC50 [2] was > 10000 nM.

`CNC(=O)[C@@H](NC(=O)c1nc(-c2ccccc2)n2c1CCN(C(C)=O)CC2)C(C)(C)C` [Compound 3-12, (S)-7-acetyl-N-(3,3-dimethyl-1-(methylamino)-1-oxobutan-2-yl)-3-phenyl-6,7,8,9-tetrahydro-5H-imidazo[1,5-d][1,4]diazepine-1-carboxamide] was tested, and the EC50 [1] was > 10000 nM, the EC50 (rat CB2 receptor (rCB2)) was > 10000 nM and the EC50 [2] was > 10000 nM.

`CNC(=O)[C@@H](NC(=O)c1nc(-c2ccccc2)n2c1CCN(CC(C)C)CC2)C(C)(C)C` [Compound 3-10, (S)-N-(3,3-dimethyl-1-(methylamino)-1-oxobutan-2-yl)-7-isobutyl-3-phenyl-6,7,8,9-tetrahydro-5H-imidazo[1,5-d][1,4]diazepine-1-carboxamide] showed an EC50 (rat CB2 receptor (rCB2)) of 10 to 100 nM.

`CC(C)Cc1ccc(C(C)C(=O)O)cc1` (stereo not drawn) [Ibuprofen, reference compound] was tested, and the “Attenuation (sec.) of CFA-induced thermal hyperalgesia (mean PWL ± SEM)” value (“Attenuation … (mean PWL ± SEM)” for short) ([3]; 100 mg/kg, 1 hr) was 7.6 ± 0.7 s and the “Attenuation … (mean PWL ± SEM)” value ([3]; 100 mg/kg, 4 hr) was 7.7 ± 0.6 s.

With `CNC(=O)[C@@H](NC(=O)c1nc(-c2ccccc2)n2c1CCN(CC1CC1)CC2)C(C)(C)C` [Compound 3-11, (S)-7-(cyclopropylmethyl)-N-(3,3-dimethyl-1-(methylamino)-1-oxobutan-2-yl)-3-phenyl-6,7,8,9-tetrahydro-5H-imidazo[1,5-d][1,4]diazepine-1-carboxamidc] the EC50 [1] was > 10000 nM, the EC50 (rat CB2 receptor (rCB2)) was 0.1 to 10 nM and the EC50 [2] was > 10000 nM.

`CCS(=O)(=O)N1CCc2c(C(=O)N[C@H](C(=O)NC)C(C)(C)C)nc(-c3ccccc3)n2CC1` [Compound 3-14, (S)-N-(3,3-dimethyl-1-(methylamino)-1-oxobutan-2-yl)-7-(ethylsulfonyl)-3-phenyl-6,7,8,9-tetrahydro-5H-imidazo[1,5-d][1,4]diazepine-1-carboxamide] was tested, and the EC50 [1] was > 10000 nM, the EC50 (rat CB2 receptor (rCB2)) was 10 to 100 nM and the EC50 [2] was > 10000 nM.

In the case of `CNC(=O)[C@@H](NC(=O)c1nc(-c2cc(F)ccc2F)n2c1CCCCC2)C(C)(C)C` [Compound 1-3, (S)-3-(2,5-difluorophenyl)-N-(3,3-dimethyl-1-(methyl-amino)-1-oxobutan-2-yl)-6,7,8,9-tetrahydro-5H-imidazo[1,5-a]azepine-1-carboxamide], the EC50 [1] is reported as 0.1 to 10 nM, the “% maximum possible effect (% MPE), writhing” value (shortened to “% maximum possible effect”) [4] is reported as “greater than fifty” and the EC50 [2] is reported as 0.1 to 10 nM.

In the case of `CNC(=O)[C@@H](NC(=O)c1nc(-c2ccc(F)c(F)c2)n2c1COCCC2)C(C)(C)C` [Compound 1-10, (S)-3-(3,4-difluorophenyl)-N-(3,3-dimethyl-1-(methylamino)-1-oxobutan-2-yl)-5,6,7,9-tetrahydroimidazo[5,1-c][1,4]oxazepine-1-carboxamide], the EC50 [1] is reported as 10 to 100 nM, the “Persistence of significant increase in PWLs post-dosing” value ([3]; 3 mg/kg p.o., p<0.01, Bonferroni post-test) is reported as “at least 4 hours” and the “Attenuation … (mean PWL ± SEM)” value ([3]; 3 mg/kg, 1 hr) is reported as 6.5 ± 0.5 s. For the same molecule, the “Attenuation … (mean PWL ± SEM)” value ([3]; 3 mg/kg, 4 hr) was 6.3 ± 0.3 s, the “Reversal of CFA-induced thermal hyperalgesia” value ([3]; oral (p.o.) administration) was “significant reversal” and the EC50 [2] was 10 to 100 nM.

With `Cc1nnc(-c2nc(-c3ccc(F)c(F)c3)n3c2CCCCC3)o1` [Compound 4-1, 2-(3-(3,4-difluorophenyl)-6,7,8,9-tetrahydro-5H-imidazo[1,5-a]azepin-1-yl)-5-methyl-1,3,4-oxadiazole] the EC50 ([1]; text statement b297, read-out: EC50 human CB2 receptor) was > 10000 nM and the EC50 (rat CB2 receptor (rCB2); above the detectable range, read-out: EC50 rat CB2 receptor) was > 10000 nM.

In the case of `CNC(=O)[C@@H](NC(=O)c1nc(-c2ccccc2)n2c1CCCCC2)C(C)(C)C` [Compound 1-1, (S)—N-(3,3-dimethyl-1-(methylamino)-1-oxobutan-2-yl)-3-phenyl-6,7,8,9-tetrahydro-5H-imidazo[1,5-a]azepine-1-carboxamide], the EC50 [1] is reported as 0.1 to 10 nM, the “% maximum possible effect” value [4] is reported as “greater than fifty” and the EC50 [2] is reported as 10 to 100 nM.

`CNC(=O)[C@@H](NC(=O)c1nc(-c2ccc(F)c(F)c2)n2c1CCCCC2)C(C)(C)C` [Compound 1-2, (S)-3-(3,4-difluorophenyl)-N-(3,3-dimethyl-1-(methylamino)-1-oxobutan-2-yl)-6,7,8,9-tetrahydro-5H-imidazo[1,5-a]azepine-1-carboxamide] was tested, and the EC50 [1] was 0.1 to 10 nM, the “% maximum possible effect” value [4] was “greater than fifty” and the EC50 [2] was 0.1 to 10 nM.

Work on `CNC(=O)[C@@H](NC(=O)c1nc(-c2ccccc2)n2c1CCN(S(=O)(=O)c1ccc(F)cc1)CC2)C(C)(C)C` [Compound 3-15, (S)-N-(3,3-dimethyl-1-(methylamino)-1-oxobutan-2-yl)-7-(4-fluorophenyl-sulfonyl)-3-phenyl-6,7,8,9-tetrahydro-5H-imidazo[1,5-d][1,4]diazepine-1-carboxamide] yielded an EC50 (rat CB2 receptor (rCB2)) of 0.1 to 10 nM.
